Measured values taken from patent publication US8802597B2, “Herbicidal pyrimidines” (E I du Pont de Nemours and Company, priority 2003, dated 2014).

Experiments:
Test in all cases: Test G pre/postemergence
Type in all cases: in vivo
[1] = system: common ragweed (Ambrosia elatior)
Procedure, shortened: (§1)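 Pre- and postemergence greenhouse test; compound in non-phytotoxic solvent/surfactant mix. Post timing: 2–18 cm plants, 1- to 4-leaf. Visual rating vs controls at 12–21 d, 0 (no effect) to 100 (complete control).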

[2] = system: pitted morningglory (Ipomoea lacunosa)
Procedure, shortened: as §1

[3] = system: Italian ryegrass (Lolium multiflorum)
Procedure, shortened: as §1

[4] = system: common chickweed (Stellaria media)
Procedure, shortened: as §1

[5] = system: goosegrass (Eleusine indica)
Procedure, shortened: as §1

[6] = system: field bindweed (Convolvulus arvensis)
Procedure, shortened: as §1

[7] = system: black mustard (Brassica nigra)
Procedure, shortened: as §1

[8] = system: quackgrass (Elytrigia repens)
Procedure, shortened: as §1

[9] = system: common mallow (Malva sylvestris)
Procedure, shortened: as §1

[10] = system: prickly sida (Sida spinosa)
Procedure, shortened: as §1

[11] = system: green foxtail (Setaria viridis)
Procedure, shortened: as §1

[12] = system: southern sandbur (Cenchrus echinatus)
Procedure, shortened: as §1

[13] = system: tropical spiderwort (Commelina benghalensis)
Procedure, shortened: as §1

[14] = system: downy bromegrass (Bromus tectorum)
Procedure, shortened: as §1

[15] = Postemergence, 250 g ai/ha, scale 0 to 100
[16] = Postemergence, 500 g ai/ha, scale 0 to 100
[17] = Postemergence, 62 g ai/ha, scale 0 to 100
[18] = Postemergence, 125 g ai/ha, scale 0 to 100
[19] = Postemergence, 375 g ai/ha, scale 0 to 100
[20] = Preemergence, 62 g ai/ha, scale 0-100
[21] = Preemergence, 125 g ai/ha, scale 0-100
[22] = Preemergence, 250 g ai/ha, scale 0-100
[23] = Preemergence, 500 g ai/ha, scale 0-100
[24] = Preemergence, 500 g ai/ha, scale 0 to 100
[25] = Preemergence, 375 g ai/ha, scale 0 to 100

## CCOC(=O)c1nc(C2CC2)nc(N)c1Br [Compound 1, ethyl 6-amino-5-bromo-2-cyclopropyl-4-pyrimidinecarboxylate]
[1]; [15]
  Plant response rating, Ragweed: 95
[1]; [16]
  Plant response rating, Ragweed: 100
[1]; [17]
  Plant response rating, Ragweed: 75
[1]; [18]
  Plant response rating, Ragweed: 95
[1]; [19]
  Plant response rating, Ragweed: 100
[1]; [20]
  Plant response rating, Ragweed: 50
[1]; [21]
  Plant response rating, Ragweed: 95
[1]; [22]
  Plant response rating, Ragweed: 100
[1]; [23]
  Plant response rating, Ragweed: 100
[1]; [24]
  Plant response rating, Ragweed: 100
[2]; [15]
  Plant response rating, Morningglory: 100
[2]; [16]
  Plant response rating, Morningglory: 100
[2]; [17]
  Plant response rating, Morningglory: 100
[2]; [18]
  Plant response rating, Morningglory: 100
[2]; [19]
  Plant response rating, Morningglory: 100
[2]; [20]
  Plant response rating, Morningglory: 95
[2]; [21]
  Plant response rating, Morningglory: 100
[2]; [22]
  Plant response rating, Morningglory: 100
[2]; [23]
  Plant response rating, Morningglory: 100
[2]; [24]
  Plant response rating, Morningglory: 100
[3]; [15]
  Plant response rating, Ryegrass, Italian: 40
[3]; [16]
  Plant response rating, Ryegrass, Italian: 40
[3]; [17]
  Plant response rating, Ryegrass, Italian: 0
[3]; [18]
  Plant response rating, Ryegrass, Italian: 10
[3]; [19]
  Plant response rating, Ryegrass, Italian: 40
[3]; [20]
  Plant response rating, Ryegrass, Italian: 0
[3]; [21]
  Plant response rating, Ryegrass, Italian: 10
[3]; [22]
  Plant response rating, Ryegrass, Italian: 30
[3]; [23]
  Plant response rating, Ryegrass, Italian: 95
[3]; [24]
  Plant response rating, Ryegrass, Italian: 95
[4]; [15]
  Plant response rating, Chickweed: 95
[4]; [18]
  Plant response rating, Chickweed: 95
[4]; [19]
  Plant response rating, Chickweed: 100
[4]; [20]
  Plant response rating, Chickweed: 70
[4]; [21]
  Plant response rating, Chickweed: 95
[4]; [22]
  Plant response rating, Chickweed: 95
[4]; [24]
  Plant response rating, Chickweed: 100
[4]; [25]
  Plant response rating, Chickweed: 100
[5]; [15]
  Plant response rating, Goosegrass: 60
[5]; [16]
  Plant response rating, Goosegrass: 60
[5]; [17]
  Plant response rating, Goosegrass: 20
[5]; [18]
  Plant response rating, Goosegrass: 60
[5]; [19]
  Plant response rating, Goosegrass: 60
[5]; [20]
  Plant response rating, Goosegrass: 0
[5]; [22]
  Plant response rating, Goosegrass: 50
[5]; [24]
  Plant response rating, Goosegrass: 50
[5]; [25]
  Plant response rating, Goosegrass: 50
[6]; [15]
  Plant response rating, Bindweed, Field: 95
[6]; [16]
  Plant response rating, Bindweed, Field: 95
[6]; [17]
  Plant response rating, Bindweed, Field: 90
[6]; [18]
  Plant response rating, Bindweed, Field: 95
[6]; [19]
  Plant response rating, Bindweed, Field: 95
[6]; [20]
  Plant response rating, Bindweed, Field: 95
[6]; [21]
  Plant response rating, Bindweed, Field: 100
[6]; [22]
  Plant response rating, Bindweed, Field: 100
[6]; [24]
  Plant response rating, Bindweed, Field: 100
[6]; [25]
  Plant response rating, Bindweed, Field: 100
[7]; [15]
  Plant response rating, Black Mustard: 75
[7]; [16]
  Plant response rating, Black Mustard: 75
[7]; [17]
  Plant response rating, Black Mustard: 60
[7]; [18]
  Plant response rating, Black Mustard: 75
[7]; [19]
  Plant response rating, Black Mustard: 75
[7]; [20]
  Plant response rating, Black Mustard: 30
[7]; [21]
  Plant response rating, Black Mustard: 80
[7]; [22]
  Plant response rating, Black Mustard: 85
[7]; [24]
  Plant response rating, Black Mustard: 100
[7]; [25]
  Plant response rating, Black Mustard: 100
[8]; [15]
  Plant response rating, Quackgrass: 60
[8]; [16]
  Plant response rating, Quackgrass: 70
[8]; [17]
  Plant response rating, Quackgrass: 10
[8]; [18]
  Plant response rating, Quackgrass: 30
[8]; [19]
  Plant response rating, Quackgrass: 70
[8]; [20]
  Plant response rating, Quackgrass: 10
[8]; [21]
  Plant response rating, Quackgrass: 60
[8]; [22]
  Plant response rating, Quackgrass: 90
[8]; [23]
  Plant response rating, Quackgrass: 95
[8]; [24]
  Plant response rating, Quackgrass: 95
[9]; [15]
  Plant response rating, Mallow: 70
[9]; [16]
  Plant response rating, Mallow: 95
[9]; [17]
  Plant response rating, Mallow: 50
[9]; [18]
  Plant response rating, Mallow: 60
[9]; [19]
  Plant response rating, Mallow: 95
[9]; [20]
  Plant response rating, Mallow: 50
[9]; [21]
  Plant response rating, Mallow: 80
[9]; [22]
  Plant response rating, Mallow: 95
[9]; [23]
  Plant response rating, Mallow: 95
[9]; [24]
  Plant response rating, Mallow: 95
[10]; [15]
  Plant response rating, Prickly Sida: 90
[10]; [16]
  Plant response rating, Prickly Sida: 95
[10]; [17]
  Plant response rating, Prickly Sida: 70
[10]; [18]
  Plant response rating, Prickly Sida: 70
[10]; [19]
  Plant response rating, Prickly Sida: 95
[10]; [20]
  Plant response rating, Prickly Sida: 70
[10]; [21]
  Plant response rating, Prickly Sida: 100
[10]; [22]
  Plant response rating, Prickly Sida: 100
[10]; [23]
  Plant response rating, Prickly Sida: 100
[10]; [24]
  Plant response rating, Prickly Sida: 100
[11]; [15]
  Plant response rating, Foxtail, Green: 30
[11]; [16]
  Plant response rating, Foxtail, Green: 60
[11]; [17]
  Plant response rating, Foxtail, Green: 10
[11]; [18]
  Plant response rating, Foxtail, Green: 20
[11]; [19]
  Plant response rating, Foxtail, Green: 50
[11]; [20]
  Plant response rating, Foxtail, Green: 10
[11]; [21]
  Plant response rating, Foxtail, Green: 10
[11]; [22]
  Plant response rating, Foxtail, Green: 50
[11]; [24]
  Plant response rating, Foxtail, Green: 90
[11]; [25]
  Plant response rating, Foxtail, Green: 90
[12]; [15]
  Plant response rating, Sandbur: 95
[12]; [16]
  Plant response rating, Sandbur: 95
[12]; [17]
  Plant response rating, Sandbur: 30
[12]; [18]
  Plant response rating, Sandbur: 60
[12]; [19]
  Plant response rating, Sandbur: 95
[12]; [20]
  Plant response rating, Sandbur: 0
[12]; [21]
  Plant response rating, Sandbur: 30
[12]; [22]
  Plant response rating, Sandbur: 70
[12]; [23]
  Plant response rating, Sandbur: 85
[12]; [24]
  Plant response rating, Sandbur: 85
[13]; [15]
  Plant response rating, Spiderwort: 95
[13]; [16]
  Plant response rating, Spiderwort: 95
[13]; [17]
  Plant response rating, Spiderwort: 95
[13]; [18]
  Plant response rating, Spiderwort: 95
[13]; [19]
  Plant response rating, Spiderwort: 95
[13]; [20]
  Plant response rating, Spiderwort: 70
[13]; [21]
  Plant response rating, Spiderwort: 100
[13]; [22]
  Plant response rating, Spiderwort: 100
[13]; [23]
  Plant response rating, Spiderwort: 100
[13]; [24]
  Plant response rating, Spiderwort: 100
[14]; [15]
  Plant response rating, Bromegrass, Downy: 60
[14]; [16]
  Plant response rating, Bromegrass, Downy: 80
[14]; [17]
  Plant response rating, Bromegrass, Downy: 30
[14]; [18]
  Plant response rating, Bromegrass, Downy: 30
[14]; [19]
  Plant response rating, Bromegrass, Downy: 70
[14]; [20]
  Plant response rating, Bromegrass, Downy: 0
[14]; [21]
  Plant response rating, Bromegrass, Downy: 20
[14]; [22]
  Plant response rating, Bromegrass, Downy: 95
[14]; [24]
  Plant response rating, Bromegrass, Downy: 95
[14]; [25]
  Plant response rating, Bromegrass, Downy: 95
